Values of other authors as cited in patent US20230390244A1, “MODIFIED RELEASE COMPOSITIONS COMPRISING MELATONIN” (Inventia Healthcare Limited, priority 2020, published 2023).

Columns and labels:
[1] = not given; remark: listed apart in the source

time within which plasma concentrations decline (immediate-release formulation, depending on dose): ≤ 1.5 h
half-life (in vivo): 40 to 50 min
solubility in organic solvents ([1]; acetone, ethyl acetate and methanol): soluble
solubility in water ([1]; water): slightly soluble
Compound: COc1ccc2[nH]cc(CCNC(C)=O)c2c1 [Melatonin, N-acetyl-5-methoxytryptamine]
